Measured values published in ChEMBL document CHEMBL4325903, “N-Substituted aminoquinoline-pyrimidine hybrids: Synthesis, in vitro antimalarial activity evaluation and docking studies” (Eur J Med Chem, 2019).
Active and inactive are the calls of the source. The calls are words filed in the database; no cut-off is given here.

Columns and labels:
[1] = Selectivity index, ratio of IC50 for cytotoxicity against African green monkey Vero cells to IC50 for chloroquine-sensitive Plasmodium falciparum D6; format: toxicity, cell-based; settings: read-out: Ratio IC50
[2] = system: Plasmodium falciparum; assay: Antimalarial activity against chloroquine-resistant Plasmodium falciparum W2 infected in RBC after 72 hrs by LDH release assay; format: functional, organism-based; settings: W2, 72 h
[3] = Selectivity index, ratio of IC50 for cytotoxicity against African green monkey Vero cells to IC50 for chloroquine-resistant Plasmodium falciparum W2; format: toxicity, cell-based; settings: read-out: Ratio IC50
[4] = system: Plasmodium falciparum; assay: Antimalarial activity against chloroquine-sensitive Plasmodium falciparum D6 infected in RBC after 72 hrs by LDH release assay; format: functional, organism-based; settings: D6, 72 h
[5] = system: Vero; assay: Cytotoxicity against African green monkey Vero cells up to 10 uM after 48 hrs by neutral red assay; format: cell-based; settings: chlorocebus sabaeus
[6] = system: Plasmodium falciparum; assay: Potency index, ratio of chloroquine IC50 to compound IC50 for antimalarial activity against chloroquine-resistant Plasmodium falciparum W2 infected in RBC; format: functional
[7] = system: Vero; assay: Cytotoxicity against African green monkey Vero cells after 48 hrs by neutral red assay; format: cell-based; settings: chlorocebus sabaeus
[8] = Binding affinity to hemin assessed as 1:1 stoichiometry for compound-hemin complex up to 12 uM at pH 7.4 by Job's plot analysis
[9] = system: mu-oxodimeric heme; assay: Binding affinity to mu-oxodimeric heme assessed as 1:1 up to 20 uM at pH 5.8 by titration method
[10] = Binding affinity to hemin assessed as 1:1 stoichiometry for compound-hemin complex up to 12 uM at pH 5.6 by Job's plot analysis

| Structure (SMILES) | selectivity ratio [1] | IC50 [2] [µM] | selectivity ratio [3] | IC50 [4] [µM] | Activity [5] | Ratio IC50 [6] | IC50 [7] [µM] | Activity [8] [molar ratio] | Activity [9] | Activity [10] [molar ratio] |
| --- | --- | --- | --- | --- | --- | --- | --- | --- | --- | --- |
| Cc1cc(N(CCNc2ccnc3cc(Cl)ccc23)Cc2ccccn2)nc(Cl)n1 | > 46.6 | 0.492 | > 22 | 0.233 | Non-Toxic | – | – | – | – | – |
| CCN1CCN(c2nc(C)cc(N(CCCNc3ccnc4cc(Cl)ccc34)Cc3cccs3)n2)CC1 | > 24.8 | 0.0312 | > 28.4 | 0.0358 | Non-Toxic | – | – | – | – | – |
| Clc1ccc2c(NCCCNCc3cccs3)ccnc2c1 | > 33.8 | 0.0751 | > 19.1 | 0.424 | Non-Toxic | – | – | – | – | – |
| Cc1cc(N2CCOCC2)nc(N(CCCNc2ccnc3cc(Cl)ccc23)Cc2ccccn2)n1 | > 8.3 | 0.334 | > 28.3 | 1.14 | Non-Toxic | – | – | – | – | – |
| Cc1cc(N2CCCCC2)nc(N(CCNc2ccnc3cc(Cl)ccc23)Cc2ccccn2)n1 | > 38.6 | 1.44 | > 6.8 | 0.252 | Non-Toxic | – | – | – | – | – |
| Cc1cc(N2CCOCC2)nc(N(CCCNc2ccnc3cc(Cl)ccc23)Cc2cccs2)n1 | > 167 | 0.542 | > 17.2 | 0.0558 | Non-Toxic | – | – | – | – | – |
| Cc1cc(N(CCNc2ccnc3cc(Cl)ccc23)Cc2ccccn2)nc(N2CCCC2)n1 | > 331 | 0.143 | > 70 | 0.03 | Non-Toxic | – | – | – | – | – |
| Cc1cc(N(CCCNc2ccnc3cc(Cl)ccc23)Cc2ccccn2)nc(N2CCCCC2)n1 | > 102 | 0.819 | > 11.6 | 0.093 | Non-Toxic | – | – | – | – | – |
| Cc1cc(N2CCN(C)CC2)nc(N(CCCNc2ccnc3cc(Cl)ccc23)Cc2cccs2)n1 | > 23.4 | 0.0199 | > 45.8 | 0.0389 | Non-Toxic | – | – | – | – | – |
| CCN1CCN(c2nc(C)cc(N(CCCNc3ccnc4cc(Cl)ccc34)Cc3ccccn3)n2)CC1 | > 321 | 0.137 | > 66 | 0.028 | Non-Toxic | – | – | – | – | – |
| Cc1cc(N(CCNc2ccnc3cc(Cl)ccc23)Cc2ccccn2)nc(N2CCCCC2)n1 | > 151 | 0.494 | > 19.7 | 0.065 | Non-Toxic | – | – | – | – | – |
| Cc1cc(N(CCCNc2ccnc3cc(Cl)ccc23)Cc2cccs2)nc(N2CCN(C)CC2)n1 | > 24.6 | 0.0387 | > 23.5 | 0.037 | Non-Toxic | – | – | – | – | – |
| CCN1CCN(c2cc(C)nc(N(CCCNc3ccnc4cc(Cl)ccc34)Cc3cccs3)n2)CC1 | > 27 | 0.0189 | > 46.8 | 0.0328 | Non-Toxic | 22 | – | – | – | – |
| Cc1cc(N2CCCC2)nc(N(CCCNc2ccnc3cc(Cl)ccc23)Cc2ccccn2)n1 | > 9.4 | 0.389 | > 25.1 | 1.04 | Non-Toxic | – | – | – | – | – |
| Cc1cc(N(CCNc2ccnc3cc(Cl)ccc23)Cc2ccccn2)nc(N2CCOCC2)n1 | > 64.2 | 0.526 | > 18.5 | 0.152 | Non-Toxic | – | – | – | – | – |
| Cc1cc(N(CCCNc2ccnc3cc(Cl)ccc23)Cc2ccccn2)nc(N2CCOCC2)n1 | > 82.5 | 0.511 | > 18.5 | 0.114 | Non-Toxic | – | – | – | – | – |
| Cc1cc(Cl)nc(N(CCNc2ccnc3cc(Cl)ccc23)Cc2ccccn2)n1 | 23.2 | 1.01 | 8.5 | 0.369 | – | – | – | – | – | – |
| Cc1cc(N(CCCNc2ccnc3cc(Cl)ccc23)Cc2ccccn2)nc(N2CCN(C)CC2)n1 | > 21.6 | 0.243 | > 37.8 | 0.426 | Non-Toxic | – | – | – | – | – |
| Cc1cc(N2CCN(C)CC2)nc(N(CCCNc2ccnc3cc(Cl)ccc23)Cc2ccccn2)n1 | > 16.7 | 0.189 | > 48.5 | 0.551 | Non-Toxic | – | – | – | – | – |

| Structure (SMILES) | selectivity ratio [1] | IC50 [2] [µM] | selectivity ratio [3] | IC50 [4] [µM] | Activity [5] | Ratio IC50 [6] | IC50 [7] [µM] | Activity [8] [molar ratio] | Activity [9] | Activity [10] [molar ratio] |
| --- | --- | --- | --- | --- | --- | --- | --- | --- | --- | --- |
| Cc1cc(N2CCCCC2)nc(N(CCCNc2ccnc3cc(Cl)ccc23)Cc2cccs2)n1 | 161 | 0.185 | 38.9 | 0.0446 | – | – | 7.2 | – | – | – |
| Cc1cc(N2CCCC2)nc(N(CCCNc2ccnc3cc(Cl)ccc23)Cc2cccs2)n1 | > 26.8 | 0.0401 | > 24 | 0.0359 | Non-Toxic | – | – | – | – | – |
| Cc1cc(N(CCCNc2ccnc3cc(Cl)ccc23)Cc2cccs2)nc(N2CCCC2)n1 | > 229 | 0.202 | > 47.7 | 0.042 | Non-Toxic | – | – | – | – | – |
| Cc1cc(N2CCCCC2)nc(N(CCCNc2ccnc3cc(Cl)ccc23)Cc2ccccn2)n1 | > 7.9 | 0.945 | > 10 | 1.19 | Non-Toxic | – | – | – | – | – |
| Cc1cc(N(CCNc2ccnc3cc(Cl)ccc23)Cc2ccccn2)nc(N2CCN(C)CC2)n1 | – | 0.142 | – | – | Non-Toxic | – | – | 0.5 | Active | 0.5 |
| Cc1cc(N(CCCNc2ccnc3cc(Cl)ccc23)Cc2cccs2)nc(N2CCCCC2)n1 | 109 | 0.235 | 38.9 | 0.0837 | – | – | 9.15 | – | – | – |
| CCN(CC)CCCC(C)Nc1ccnc2cc(Cl)ccc12 (stereo unspecified) [CHLOROQUINE] | – | – | – | – | Non-Toxic | – | – | – | – | – |
| Cc1cc(N2CCN(C)CC2)nc(N(CCNc2ccnc3cc(Cl)ccc23)Cc2ccccn2)n1 | > 238 | 0.139 | > 68 | 0.04 | Non-Toxic | – | – | – | – | – |
| Cc1cc(N2CCOCC2)nc(N(CCNc2ccnc3cc(Cl)ccc23)Cc2ccccn2)n1 | > 31.2 | 0.248 | > 39.1 | 0.311 | Non-Toxic | – | – | – | – | – |
| Cc1cc(N(CCCNc2ccnc3cc(Cl)ccc23)Cc2ccccn2)nc(N2CCCC2)n1 | > 274 | 0.14 | > 69 | 0.036 | Non-Toxic | – | – | – | – | – |
| CCN1CCN(c2cc(C)nc(N(CCNc3ccnc4cc(Cl)ccc34)Cc3ccccn3)n2)CC1 | > 270 | 0.039 | > 273 | 0.034 | Non-Toxic | – | – | – | – | – |
| Cc1cc(N(CCCNc2ccnc3cc(Cl)ccc23)Cc2cccs2)nc(Cl)n1 | > 42.2 | 0.606 | > 17.1 | 0.246 | Non-Toxic | – | – | – | – | – |
| Cc1cc(Cl)nc(N(CCCNc2ccnc3cc(Cl)ccc23)Cc2ccccn2)n1 | > 6.3 | 0.804 | > 13 | 1.66 | Non-Toxic | – | – | – | – | – |
| Cc1cc(N(CCCNc2ccnc3cc(Cl)ccc23)Cc2ccccn2)nc(Cl)n1 | > 7.6 | 0.319 | > 33.5 | 1.39 | Non-Toxic | – | – | – | – | – |
| C[C@@H]1CC[C@H]2[C@@H](C)C(=O)O[C@@H]3O[C@@]4(C)CC[C@@H]1[C@]32OO4 [ARTEMISININ] | > 49.2 | 0.0162 | > 52 | 0.0171 | Non-Toxic | – | – | – | – | – |
| CCN1CCN(c2nc(C)cc(N(CCNc3ccnc4cc(Cl)ccc34)Cc3ccccn3)n2)CC1 | > 326 | 0.093 | > 98 | 0.028 | Non-Toxic | – | – | – | – | – |
| Cc1cc(N(CCCNc2ccnc3cc(Cl)ccc23)Cc2cccs2)nc(N2CCOCC2)n1 | 168 | 0.409 | 22.7 | 0.0552 | – | – | 9.3 | – | – | – |
| Cc1cc(N2CCCC2)nc(N(CCNc2ccnc3cc(Cl)ccc23)Cc2ccccn2)n1 | > 71.7 | 0.855 | > 11.7 | 0.14 | Non-Toxic | – | – | – | – | – |
| Cc1cc(Cl)nc(N(CCCNc2ccnc3cc(Cl)ccc23)Cc2cccs2)n1 | > 87.2 | 0.462 | > 22.5 | 0.119 | Non-Toxic | – | – | – | – | – |
